Calls of active or inactive are those of the source. The calls are words filed in the database; no cut-off is given here.

Ten molecules from ChEMBL document CHEMBL4334511, “Trivirensols: Selectively Bacteriostatic Sesquiterpene Trimers from the Australian Termite Nest-Derived Fungus Trichoderma virens CMB-TN16” (J Nat Prod, 2019) can be followed below.

The test system of one data set is SW-620. Nature of the data set: Cytotoxicity against human SW620 cells assessed as reduction in cell viability upto 30 uM incubated for 48 hrs by MTT assay. Format: cell-based. To be noted: sw-620, 48 h. A general note: Formazan colour is commonly taken as a measure of viable cells.
A further data set concerns NCI-H460. Nature of the data set: Cytotoxicity against human NCI-H460 cells assessed as reduction in cell viability upto 30 uM incubated for 48 hrs by MTT assay. Type of data set: cell-based. Particulars: nci-h460, 48 h.
Another data set concerns Candida albicans. Description: Antifungal activity against Candida albicans ATCC 90028 assessed as reduction in fungal growth at 0.01 to 30 uM incubated for 24 hrs by spectrophotometry based broth microdilution assay. Type of data set: functional, organism-based. On the technique in general: Broth dilution looks for growth in wells or tubes with falling amounts of substance.

A further data set concerns Bacillus subtilis. Description: Antibacterial activity against Bacillus subtilis ATCC 6633 assessed as reduction in […] growth at 0.01 to 30 uM incubated for 24 hrs by spectrophotometry based broth microdilution assay. Type of data set: functional, organism-based.
The test system of data set [1] is Staphylococcus aureus. Description: Antibacterial activity against Staphylococcus aureus ATCC 9144 assessed as reduction in […] growth at 0.01 to 30 uM incubated for 24 hrs by spectrophotometry based broth microdilution assay. Type of data set: functional, organism-based.
The subject of a further data set is Streptococcus pyogenes. Nature of the data set: Antibacterial activity against Streptococcus pyogenes ATCC 12344 assessed as reduction in […] growth at 0.01 to 30 uM incubated for 24 hrs by spectrophotometry based broth microdilution assay. Type of data set: functional, organism-based.
For data set [2], the system named is Escherichia coli. Description: Antibacterial activity against Escherichia coli ATCC 11775 assessed as reduction in […] growth at 0.01 to 30 uM incubated for 24 hrs by spectrophotometry based broth microdilution assay. Format: functional, organism-based.
For data set [3], the system named is Staphylococcus aureus. Description: Antibacterial activity against methicillin-resistant Staphylococcus aureus AUS-RBWH-MRSA-02 assessed as reduction in […] growth at 0.01 to 30 uM incubated for 24 hrs by spectrophotometry based broth microdilution assay. Type of data set: functional, organism-based.
For data set [4], the system named is Escherichia coli. Nature of the data set: Antibacterial activity against Escherichia coli KUW-kw-AmH-11 assessed as reduction in […] growth at 0.01 to 30 uM incubated for 24 hrs by spectrophotometry based broth microdilution assay. Format: functional, organism-based.
Data set [5] concerns Pseudomonas aeruginosa. Nature of the data set: Antibacterial activity against IMP producing Pseudomonas aeruginosa UAE-DBI-ZMH-91 assessed as reduction in […] growth at 0.01 to 30 uM incubated for 24 hrs by spectrophotometry based broth microdilution assay. Type of data set: functional, organism-based.
The subject of data set [6] is Pseudomonas aeruginosa. Description: Antibacterial activity against VIM producing Pseudomonas aeruginosa SA-EP-KFUH-40 assessed as reduction in […] growth at 0.01 to 30 uM incubated for 24 hrs by spectrophotometry based broth microdilution assay. Format: functional, organism-based.
Data set [7] has as its system Klebsiella pneumoniae. Description: Antibacterial activity against NDM-producing Klebsiella pneumoniae SA-Rd-KAMC-037 assessed as reduction in […] growth at 0.01 to 30 uM incubated for 24 hrs by spectrophotometry based broth microdilution assay. Format: functional, organism-based.
Data set [8] has as its system Klebsiella pneumoniae. Description: Antibacterial activity against OXA-48-producing Klebsiella pneumoniae SA-Rd-KAMC-014 assessed as reduction in […] growth at 0.01 to 30 uM incubated for 24 hrs by spectrophotometry based broth microdilution assay. Type of data set: functional, organism-based.
The next data set deals with Acinetobacter baumannii. Nature of the data set: Antibacterial activity against OXA-23-producing Acinetobacter baumannii SA-Rd-KAMC-083 assessed as reduction in […] growth at 0.01 to 30 uM incubated for 24 hrs by spectrophotometry based broth microdilution assay. Type of data set: functional, organism-based.
The subject of data set [9] is Enterococcus faecalis. Description: Antibacterial activity against vancomycin-resistant Enterococcus faecalis AUS-RBWH-VRE-01 assessed as reduction in […] growth incubated for 24 hrs by spectrophotometry based broth microdilution assay. Format: functional, organism-based.
For data set [10], the system named is Enterococcus faecalis. Description: Antibacterial activity against vancomycin-resistant Enterococcus faecalis AUS-RBWH-VRE-01 assessed as fold reduction in growth by measuring colony formation unit at 30 uM incubated for 24 hrs by time kill assay. Format: functional.

Consider `CC(C)[C@H]1CC[C@@](O)(COC(=O)/C(=C/[C@H]2C=C(CO)CC[C@@H]2C(C)C)CO)[C@H]2C(=O)OCC(C(=O)O)=C[C@H]12`, for which the Activity result in the data set on SW-620 and with NCI-H460 was “Non-Toxic” in each case. The outcome with Candida albicans, in the data set on Bacillus subtilis, with Staphylococcus aureus [1], in the data set on Streptococcus pyogenes, in the data set with Escherichia coli [2] and in the data set with Staphylococcus aureus [3] was inactive. In addition, the result in the data set on Escherichia coli [4], in the data set with Pseudomonas aeruginosa [5], with Pseudomonas aeruginosa [6], with Klebsiella pneumoniae [7], in the data set on Klebsiella pneumoniae [8] and with Acinetobacter baumannii was inactive.

For `CC(C)[C@H]1CC[C@@]2(OC(=O)/C(=C/[C@H]3C=C(CO)CC[C@@H]3C(C)C)CO)COC(=O)[C@H]2[C@@H]1/C=C(\CO)C(=O)O`, the Activity entry with SW-620 and in the data set on NCI-H460 was “Non-Toxic” in each case. The result in the data set on Candida albicans, in the data set with Bacillus subtilis, in the data set on Staphylococcus aureus [1], in the data set on Streptococcus pyogenes, in the data set with Escherichia coli [2] and in the data set on Staphylococcus aureus [3] was inactive. Further, the outcome in the data set on Escherichia coli [4], with Pseudomonas aeruginosa [5], with Pseudomonas aeruginosa [6], in the data set with Klebsiella pneumoniae [7], in the data set on Klebsiella pneumoniae [8] and with Acinetobacter baumannii was inactive.

As to `CC(C)[C@H]1CC[C@@](O)(COC(=O)/C(=C/[C@@H]2[C@@H](C(C)C)CC[C@@]3(OC(=O)/C(=C/[C@H]4C=C(CO)CC[C@@H]4C(C)C)CO)COC(=O)[C@@H]23)CO)[C@H]2C(=O)OCC(C(=O)O)=C[C@H]12`, the Activity entry in the data set on SW-620 and in the data set on NCI-H460 was “Non-Toxic” each time. Also, the result in the data set with Candida albicans, in the data set on Bacillus subtilis, with Staphylococcus aureus [1], in the data set on Streptococcus pyogenes, with Escherichia coli [2] and in the data set with Staphylococcus aureus [3] was inactive. The result with Escherichia coli [4], in the data set on Pseudomonas aeruginosa [5], in the data set with Pseudomonas aeruginosa [6], in the data set on Klebsiella pneumoniae [7], with Klebsiella pneumoniae [8] and with Acinetobacter baumannii was inactive. Besides, in the data set on Enterococcus faecalis [9], the IC50 entry is “Not Active”.

`CN[C@H](CC(C)C)C(=O)N[C@H]1C(=O)N[C@@H](CC(N)=O)C(=O)N[C@H]2C(=O)N[C@H]3C(=O)N[C@H](C(=O)N[C@H](C(=O)O)c4cc(O)cc(O)c4-c4cc3ccc4O)[C@H](O)c3ccc(c(Cl)c3)Oc3cc2cc(c3O[C@@H]2O[C@H](CO)[C@@H](O)[C@H](O)[C@H]2O[C@H]2C[C@](C)(N)[C@H](O)[C@H](C)O2)Oc2ccc(cc2Cl)[C@H]1O` [VANCOMYCIN]: in the data set on Enterococcus faecalis [10], the “fold change (FC)” value is listed as 100.

`CC(C)[C@H]1CC[C@@](O)(COC(=O)/C(=C/[C@H]2C=C(CO)CC[C@@H]2C(C)C)CO)[C@H]2C(=O)OCC(C(=O)O[C@@]34CC[C@H](C(C)C)[C@@H](/C=C(\CO)C(=O)O)[C@@H]3C(=O)OC4)=C[C@H]12`: the Activity entry with SW-620 and in the data set with NCI-H460 was “Non-Toxic” each time. The outcome with Candida albicans, with Bacillus subtilis, in the data set with Staphylococcus aureus [1], with Streptococcus pyogenes, with Escherichia coli [2] and in the data set with Staphylococcus aureus [3] was inactive. The result in the data set on Escherichia coli [4], in the data set with Pseudomonas aeruginosa [5], in the data set with Pseudomonas aeruginosa [6], in the data set on Klebsiella pneumoniae [7], in the data set with Klebsiella pneumoniae [8] and in the data set with Acinetobacter baumannii was inactive. Besides, the IC50 entry with Enterococcus faecalis [9] is listed as “Not Active”.

Consider `CC(C)[C@H]1CC[C@@](O)(COC(=O)C2=C[C@@H]3[C@@H](C(C)C)CC[C@@](O)(COC(=O)/C(=C/[C@H]4C=C(CO)CC[C@@H]4C(C)C)CO)[C@H]3C(=O)OC2)[C@H]2C(=O)OCC(C(=O)O)=C[C@H]12`, for which the Activity result in the data set with SW-620 and with NCI-H460 was “Non-Toxic” in each case. In addition, the outcome in the data set with Candida albicans, in the data set with Bacillus subtilis, in the data set with Staphylococcus aureus [1], with Streptococcus pyogenes, with Escherichia coli [2] and with Staphylococcus aureus [3] was inactive. The result in the data set on Escherichia coli [4], in the data set on Pseudomonas aeruginosa [5], in the data set on Pseudomonas aeruginosa [6], in the data set with Klebsiella pneumoniae [7], with Klebsiella pneumoniae [8] and in the data set with Acinetobacter baumannii was inactive. Moreover, the IC50 entry in the data set with Enterococcus faecalis [9] was “Not Active”.

As to `CC(C)[C@H]1CC[C@@]2(OC(=O)/C(=C/[C@H]3C4=C(CC[C@@H]3C(C)C)COC4=O)CO)COC(=O)[C@H]2[C@@H]1/C=C(\CO)C(=O)O`, the Activity entry with SW-620 and in the data set with NCI-H460 was “Non-Toxic” throughout. The result with Candida albicans, in the data set on Bacillus subtilis, with Staphylococcus aureus [1], in the data set on Streptococcus pyogenes, in the data set with Escherichia coli [2] and in the data set with Staphylococcus aureus [3] was inactive. Moreover, the outcome in the data set on Escherichia coli [4], with Pseudomonas aeruginosa [5], in the data set on Pseudomonas aeruginosa [6], in the data set with Klebsiella pneumoniae [7], in the data set with Klebsiella pneumoniae [8] and in the data set on Acinetobacter baumannii was inactive.

As for `CC(C)[C@H]1CC[C@@](O)(COC(=O)/C(=C/[C@H]2C3=C(CC[C@@H]2C(C)C)COC3=O)CO)[C@@H](C(=O)O)[C@@H]1/C=C(\CO)C(=O)O`, the Activity result in the data set with SW-620 and in the data set on NCI-H460 was “Non-Toxic” each time. The outcome with Candida albicans, in the data set on Bacillus subtilis, in the data set on Staphylococcus aureus [1], in the data set with Streptococcus pyogenes, in the data set on Escherichia coli [2] and with Staphylococcus aureus [3] was inactive. For the same molecule, the result with Escherichia coli [4], with Pseudomonas aeruginosa [5], in the data set on Pseudomonas aeruginosa [6], in the data set on Klebsiella pneumoniae [7], in the data set with Klebsiella pneumoniae [8] and in the data set on Acinetobacter baumannii was inactive. Further, the result in the data set on Enterococcus faecalis [10] was Active.

With `CC(C)[C@H]1CC[C@@](O)(COC(=O)/C(=C/[C@H]2C3=C(CC[C@@H]2C(C)C)COC3=O)CO)[C@H]2C(=O)OCC(C(=O)O)=C[C@H]12`, the Activity entry in the data set with SW-620 and with NCI-H460 was “Non-Toxic” each time. Also, the outcome in the data set on Candida albicans, in the data set with Bacillus subtilis, in the data set with Staphylococcus aureus [1], in the data set on Streptococcus pyogenes, in the data set with Escherichia coli [2] and with Staphylococcus aureus [3] was inactive. The outcome in the data set with Escherichia coli [4], with Pseudomonas aeruginosa [5], in the data set with Pseudomonas aeruginosa [6], with Klebsiella pneumoniae [7], with Klebsiella pneumoniae [8] and in the data set with Acinetobacter baumannii was inactive. In the data set with Enterococcus faecalis [10], the outcome was Active.

`CC(C)[C@H]1CC[C@@](O)(COC(=O)C2=C[C@H]3[C@@H](OC2)[C@H](CO)CC[C@@H]3C(C)C)[C@H]2C(=O)OCC(C(=O)O)=C[C@H]12`: the Activity result in the data set with SW-620 and in the data set with NCI-H460 was “Non-Toxic” each time. Further, the outcome in the data set with Candida albicans, in the data set with Bacillus subtilis, in the data set with Staphylococcus aureus [1], with Streptococcus pyogenes, in the data set on Escherichia coli [2] and in the data set with Staphylococcus aureus [3] was inactive. Also, the outcome in the data set with Escherichia coli [4], with Pseudomonas aeruginosa [5], in the data set with Pseudomonas aeruginosa [6], with Klebsiella pneumoniae [7], with Klebsiella pneumoniae [8] and in the data set with Acinetobacter baumannii was inactive.
